One compound from PubChem BioAssay AID1078 (Emory University Molecular Libraries Screening Center, 2008) can be followed below.

This experiment addresses Estrogen receptor (Homo sapiens) (UniProt P03372). The experiment is described as follows: ERα transcriptional antagonism in reporter cells, dose response, orthogonal assay for ERα coactivator binding inhibitor project, HEC-1 cells, luciferase reporter, 1 nM E2 (AID 1078). The conditions noted are these: ERE-luciferase reporter, 1 nM E2, 24 h. (A reporter such as luciferase makes a cellular process visible.)

Estrogen receptor (Homo sapiens), sequence (P03372 whole entry, looked up): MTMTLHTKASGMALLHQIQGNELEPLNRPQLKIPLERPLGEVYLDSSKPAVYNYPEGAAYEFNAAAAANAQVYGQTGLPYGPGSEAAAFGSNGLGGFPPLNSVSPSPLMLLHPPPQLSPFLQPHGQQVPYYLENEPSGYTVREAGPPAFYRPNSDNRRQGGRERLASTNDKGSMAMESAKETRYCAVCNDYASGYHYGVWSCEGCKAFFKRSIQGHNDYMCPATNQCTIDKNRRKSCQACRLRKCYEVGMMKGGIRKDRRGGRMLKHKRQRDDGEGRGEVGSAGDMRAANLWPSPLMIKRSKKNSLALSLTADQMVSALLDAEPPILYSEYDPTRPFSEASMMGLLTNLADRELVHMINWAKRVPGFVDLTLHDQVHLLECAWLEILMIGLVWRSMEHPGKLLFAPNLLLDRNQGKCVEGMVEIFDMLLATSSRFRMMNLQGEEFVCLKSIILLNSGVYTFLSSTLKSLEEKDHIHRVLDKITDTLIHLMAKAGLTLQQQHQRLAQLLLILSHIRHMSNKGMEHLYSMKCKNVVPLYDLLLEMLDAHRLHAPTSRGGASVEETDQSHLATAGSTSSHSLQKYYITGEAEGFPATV

For `Cc1ccc(-n2c(=O)c(C#N)cc3c(=O)n4cccc(C)c4nc32)cc1`, the IC50 (as a rule, the concentration at which inhibition is half-maximal) was 4.65 µM.
